Data on 13 compounds can be found in patent US9796726B2, “Dihydroquinoline pyrazolyl compounds” (Hoffmann-La Roche Inc., priority 2014, dated 2017).

One test deals with T1, human CYP11B1 (Homo sapiens, UniProt P15538).
T1 construct: The expression plasmids contains the ORF for either human/cyno CYP11B1 or CYP11B2; expressed in transfected cells
T1 sequence (P15538 25-503): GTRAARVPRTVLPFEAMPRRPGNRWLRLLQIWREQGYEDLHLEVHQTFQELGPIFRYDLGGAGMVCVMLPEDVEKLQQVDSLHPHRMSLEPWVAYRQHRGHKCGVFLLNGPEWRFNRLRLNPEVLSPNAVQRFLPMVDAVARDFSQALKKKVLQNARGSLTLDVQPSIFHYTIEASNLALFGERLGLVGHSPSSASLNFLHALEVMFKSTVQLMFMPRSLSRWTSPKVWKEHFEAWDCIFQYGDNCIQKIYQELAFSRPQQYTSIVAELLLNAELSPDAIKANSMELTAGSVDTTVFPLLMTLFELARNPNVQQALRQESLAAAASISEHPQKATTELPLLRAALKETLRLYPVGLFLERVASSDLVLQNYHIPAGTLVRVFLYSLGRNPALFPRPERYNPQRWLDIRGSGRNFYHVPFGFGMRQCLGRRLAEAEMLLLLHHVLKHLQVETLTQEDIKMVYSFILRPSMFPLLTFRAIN
The test can be described thus: G-402 cellular enzyme assay, human CYP11B1 (cortisol release, HTRF). As to conditions: stable G-402 cells expressing human CYP11B1; 1 μM Deoxycortisol; 16 h. Type of test: cell-based. The source says: Herein we identified the use of the G-402 cell line as a host cell to ectopically express (transiently or stably) enzymes of the CYP11 family. Specifically we developed stable G-402 cells expressing ectopically human CYP11B1, human CYP11B2, human CYP11A1, cynmolgus CYP11B1 or cynomolgus CYP11B2 enzyme activity. Importantly the identified cell line G-402 expresses co-factors (adrenodoxin and adrenodoxin reductase) important for the activity of the CYP11 family and no relevant enzyme activity of the CYP11 family (in comparison to H295R cells) was detected in these cells. Therefore the G-402 cell line is uniquely suited as a host cell for the ectopic expression of enzymes from the CYP11 family.
G-402 cells can be obtained from ATCC (CRL-1440) and were originally derived from a renal leiomyoblastoma.
The expression plasmids contains the ORF for either human/cyno CYP11B1 or CYP11B2 under the control of a suitable promoter (CMV-promoter) and a suitable resistance marker (neomycin). Using standard techniques the expression plasmid is transfected into G-402 cells and these cells are then selected for expressing the given resistance markers. Individual cell-clones are then selected and assessed for displaying the desired enzymatic activity using 11-Deoxycorticosterone (Cyp11B2) or 11-Deoxycortisol (Cyp11B1) as a substrate.
G-402 cells expressing CYP11 constructs were established as described above and maintained in McCoy's 5a Medium Modified, ATCC Catalog No. 30-2007 containing 10% FCS and 400 μg/ml G418 (Geneticin) at 37° C. under an atmosphere of 5% CO2/95% air. Cellular enzyme assays were performed in DMEM/F12 medium containing 2.5% charcoal treated FCS and appropriate concentration of substrate (0.3-10 uM 11-Deoxycorticosterone, 11-Deoxycortisol or Corticosterone). For assaying enzymatic activity, cells were plated onto 96 well plates and incubated for 16 h. An aliquot of the supernatant is then transferred and analyzed for the concentration of the expected product (Aldosterone for CYP11B2; Cortisol for CYP11B1). The concentrations of these steroids can be determined using HTRF assays from CisBio analyzing either Aldosterone or Cortisol.
Inhibition of the release of produced steroids can be used as a measure of the respective enzyme inhibition by test compounds added during the cellular enzyme assay. The dose dependent inhibition of enzymatic activity by a compound is calculated by means of plotting added inhibitor concentrations (x-axes) vs. measured steroid/product level (y-axes). The inhibition is then calculated by fitting the following 4-parameter sigmoidal function (Morgan-Mercer-Flodin (MMF) model) to the raw data points using the least squares method:
[formula] wherein, A is the maximum y value, B is the EC50 factor determined using XLFit, C is the minimum y value and D is the slope value.
EC50 values for compounds claimed herein were tested with the G402-based assay system described. Cyp11B2 enzyme activity was tested in presence of 1 μM Deoxycorticosterone and variable amounts of inhibitors; Cyp11B1 enzyme activity was tested in presence of 1 μM Deoxycortisol and variable amounts of inhibitors.
(TR-FRET usually uses a lanthanide donor and a delayed reading to cut background.)

For test [1] the following is noted: rat, cited from earlier work; for plasma aldosterone: FAD286 following 4 weeks of treatment, spironolactone at 4 and 8 weeks.
A further test addresses CYP11B2 (Homo sapiens, UniProt P19099). The note with it: patients with primary aldosteronism, cited from earlier work.

A value given as a limit tells only on which side of the number the result lay.

Sequence of CYP11B2 (P19099 25-503): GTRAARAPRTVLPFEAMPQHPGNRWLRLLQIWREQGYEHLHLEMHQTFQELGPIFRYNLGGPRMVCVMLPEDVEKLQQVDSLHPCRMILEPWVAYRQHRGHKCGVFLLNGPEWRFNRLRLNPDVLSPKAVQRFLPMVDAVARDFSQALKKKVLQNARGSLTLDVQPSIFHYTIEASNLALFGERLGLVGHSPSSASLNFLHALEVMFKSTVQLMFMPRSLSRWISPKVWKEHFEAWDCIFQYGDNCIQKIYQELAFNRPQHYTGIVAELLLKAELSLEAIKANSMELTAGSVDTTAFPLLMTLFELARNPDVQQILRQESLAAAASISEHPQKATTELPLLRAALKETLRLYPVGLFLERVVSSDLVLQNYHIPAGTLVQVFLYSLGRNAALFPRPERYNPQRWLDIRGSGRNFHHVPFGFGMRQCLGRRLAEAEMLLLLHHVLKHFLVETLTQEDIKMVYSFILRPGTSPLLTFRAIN

What is called EC50 is the midpoint of the concentration-response curve. Compound `CC(=O)N1CC2(CN(Cc3cn[nH]c3-c3ccc4c(c3Cl)CCC(=O)N4C)C2)C1` [Example 59, 6-[4-[(2-Acetyl-2,6-diazaspiro[3.3]heptan-6-yl)methyl]-1H-pyrazol-3-yl]-5-chloro-1-methyl-3,4-dihydroquinolin-2-one] yielded a concentration giving a half-maximal response (EC50) at human CYP11B1 above 30 nM. As for `CN1C(=O)CCc2c1ccc(-c1n[nH]cc1CN1CC3(C1)CN(C(=O)c1cnn(C)c1)C3)c2Cl` [Example 53, 5-Chloro-1-methyl-6-[4-[[2-(1-methylpyrazole-4-carbonyl)-2,6-diazaspiro[3.3]heptan-6-yl]methyl]-1H-pyrazol-3-yl]-3,4-dihydroquinolin-2-one], at human CYP11B1, the EC50 is above 30 nM. As to `CN1C(=O)CCc2cc(-c3[nH]ncc3CN3CC4(C3)CN(C(=O)c3ncccc3Cl)C4)ccc21` [Example 64, 6-[4-[[2-(3-Chloropyridine-2-carbonyl)-2,6-diazaspiro[3.3]heptan-6-yl]methyl]-1H-pyrazol-3-yl]-1-methyl-3,4-dihydroquinolin-2-one], on human CYP11B1, the EC50 is above 30 nM.

`CC(=O)N1CCN(Cc2c[nH]nc2-c2ccc3c(c2)CCC(=O)N3C)C[C@H]1C` [Example 49, (−)-6-[4-[[(3R)-4-Acetyl-3-methyl-piperazin-1-yl]methyl]-1H-pyrazol-3-yl]-1-methyl-3,4-dihydroquinolin-2-one]: the EC50 on human CYP11B1 is above 30 nM. `CN1C(=O)CCc2cc(-c3n[nH]cc3CN3CCN(C(=O)c4cnn(C)c4)CC3)cc(Cl)c21` [Example 44, 8-Chloro-1-methyl-6-[4-[[4-(1-methylpyrazole-4-carbonyl)piperazin-1-yl]methyl]-1H-pyrazol-3-yl]-3,4-dihydroquinolin-2-one] returned an EC50 at human CYP11B1 above 30 nM. On to `CCS(=O)(=O)N1CC2(CN(Cc3cn[nH]c3-c3cc(Cl)c4c(c3)CCC(=O)N4C)C2)C1` [Example 62, 8-Chloro-6-[4-[(2-ethylsulfonyl-2,6-diazaspiro[3.3]heptan-6-yl)methyl]-1H-pyrazol-3-yl]-1-methyl-3,4-dihydroquinolin-2-one], for which, at human CYP11B1, the EC50 was above 30 nM. As to `N#Cc1ccc(C2CCCc3cncn32)cc1` (centres unmarked) [FAD286], the plasma aldosterone result in test [1] is “reduced”. For the compound `CC(=O)S[C@@H]1CC2=CC(=O)CC[C@]2(C)[C@H]2CC[C@@]3(C)[C@@H](CC[C@@]34CCC(=O)O4)[C@H]12` [spironolactone], in test [1], the plasma aldosterone entry is “increased”; the “angiotensin II and salt-stimulated PAI-1 mRNA expression in the aorta and the heart” value was “enhanced”. The compound `CCS(=O)(=O)N1CC2(CN(Cc3c[nH]nc3-c3ccc4c(c3Cl)CCC(=O)N4C)C2)C1` [Example 54, 5-Chloro-6-[4-[(2-ethylsulfonyl-2,6-diazaspiro[3.3]heptan-6-yl)methyl]-1H-pyrazol-3-yl]-1-methyl-3,4-dihydroquinolin-2-one] yielded an EC50 at human CYP11B1 above 30 nM. For the compound `CN1C(=O)CCc2cc(-c3[nH]ncc3CN3CC4(C3)CN(C(=O)c3cnn(C)c3)C4)cc(Cl)c21` [Example 60, 8-Chloro-1-methyl-6-[4-[[2-(1-methylpyrazole-4-carbonyl)-2,6-diazaspiro[3.3]heptan-6-yl]methyl]-1H-pyrazol-3-yl]-3,4-dihydroquinolin-2-one], the EC50 at human CYP11B1 was above 30 nM. `CN1C(=O)CCc2cc(-c3[nH]ncc3CN3CC4(C3)CN(C(=O)c3nccn3C)C4)ccc21` [Example 63, 1-Methyl-6-[4-[[2-(1-methylimidazole-2-carbonyl)-2,6-diazaspiro[3.3]heptan-6-yl]methyl]-1H-pyrazol-3-yl]-3,4-dihydroquinolin-2-one] came in with an EC50 at human CYP11B1 above 30 nM. As to `CCS(=O)(=O)N1CC2(CN(Cc3cn[nH]c3-c3ccc4c(c3)CCC(=O)N4C)C2)C1` [Example 56, 6-[4-[(2-Ethylsulfonyl-2,6-diazaspiro[3.3]heptan-6-yl)methyl]-1H-pyrazol-3-yl]-1-methyl-3,4-dihydroquinolin-2-one], on human CYP11B1, the 50% effective concentration (EC50) was above 30 nM. Take `N#Cc1ccc([C@H]2CCc3cncn32)c(F)c1` [LCI699]: on CYP11B2, the blood pressure entry is “mildly decreased”, the hypokalemia entry is “corrected” and the “selectivity (effects on the glucocorticoid axis)” value is “poor selectivity”. Besides, at CYP11B2 (oral), the circulating aldosterone levels entry was “significantly lower”.
